These results are taken from patent US20080095868A1, “Use of fermented wheat-germ in the feeding and veterinary practice” (priority 2002, published 2008).

Structures are written as SMILES.

This assay concerns M. gallisepticum No 1226. In words: effect against Mycoplasma gallisepticum infection in chickens (Example 6). It is filed as in vivo, Mycoplasma gallisepticum; Arbor Acress chickens. Here is the method: The investigations were performed with Arbor Acress chickens of meat type free of M. synoviae infection. The freedom from Mycoplasma synoviae of the animals was verified with systematic serological screening examination in an agglutination test by the help of M. gallisepticum and M. synoviae antigens (Intervet International B.V.M.; Boxmeer, The Netherlands). Furthermore, the animals were tested in an ELISA-test based on monoclonal antibodies and with the use of MYGA test-kit (Diagnosztikum Kft; Budapest, Hungary) and MYSA kit (Svanova, Uppsala, Sweden) [Czifra, Gy. et al.: Avian Dis. 37, 680-688 (1993)]. The serological examinations gave negative results. Furthermore, from the same hatching from which the experimental animals derived, isolation of Mycoplasma was tried from the nasal cavity, trachea and air pocket of 20 1 day old chicks using medium B [Erno H., and Stipkovits, L.: Acta Vet. Scand. 14, 436-449 (1973)] and Frey's media [Frey, M. C. et al.: Am. J. Vet. Res. 29, 2164-2171 (1968)]. This cultivation closed with a negative result, too.
For the infection of the experimental animals M. gallisepticum N^o 1226 was employed which had been previously amplified in medium B for 24 hours. The germ content was 9.5×10^8 pfu/ml (pfu=plaque forming unit).
The experimental groups were treated and infected as follows:
Group 1. was located in a 200 litre box which can be fastened down hermetically, into which 10 ml sterile medium B was sprayed, then the animals were kept in this box for 20 minutes.
Group 3. was infected in identical manner as Group 2., then after location in a third room the animals were fed with a chick breeding nutriment containing VET-HBM in 3 g/kg concentration in the course of the experiment.
Group 4. was infected in identical manner as Group 2., then after location in a fourth room the animals were fed with a nutriment containing 200 mg/kg tiamutin (Biochemie GmbH, Kundl, Austria) in the course of the experiment.
To the judgment of the effectiveness of the treatment the following parameters were investigated: clinical symptoms, changes in body weight, feed conversion ratio; in addition to them pathological, histological and serological examinations as well as Mycoplasma re-isolation were performed. In the course of their evaluation the following result were obtained.
At the end of the experiment all the animals were examined by pathological dissection to air-pocket- and peritoneum inflammation characteristic of the M. gallisepticum infection.
The blood plasma of all the chickens was investigated on slide in a M. gallisepticum agglutination test. The severity of the reaction was scored, and the number of respondent animals and the sum of the scores were compared in a Chie square test. The Group 1. remained negative till the end of the experiment. […] (75 scores).
The re-isolation of the infectious Mycoplasma strain was performed as follows. Following of the infection after 1 hour 5-5 animals were killed. 1-1 cm long pieces of trachea were placed into 2 ml liquid medium B, and after 3 minutes of shaking germ counting were performed in the medium. At the end of the experiment re-isolation of the strain used for infection was attempted from the respiratory organs (trachea, lung, air-pocket) and other organs (brain, liver, spleen, kidney, heart) of all the chickens in that manner that samples were carried from every abovementioned organ to solid medium B by the help of a tampon. The agar slants were cultivated for 10 days then they were evaluated. A portion of the isolates was identified with an epifluorescent method using a specific immune serum.

For `C=C[C@]1(C)C[C@@H](OC(=O)CSCCN(CC)CC)[C@]2(C)[C@H](C)CC[C@]3(CCC(=O)[C@H]32)[C@@H](C)[C@@H]1O` [tiamutin], the “number of animals exhibiting serological response, M. gallisepticum agglutination test” value (30 animals per group, non-treated Group 2: 25, VET-HBM 3 g/kg, tiamutin 200 mg/kg) stood at 8. Further, the “Mycoplasma re-isolation, number of occasions” value (end of the experiment, Group 2: 64 instances, VET-HBM 3 g/kg, tiamutin 200 mg/kg) is on record as 3. For the setting “infected chickens, Group 3 VET-HBM 3 g/kg, Group 4 tiamutin 200 mg/kg in nutriment”, the clinical symptoms entry is “no any clinical symptoms”. In addition, the “gain in body weight” value (infected chickens, VET-HBM 3 g/kg, tiamutin 200 mg/kg in nutriment) was “of same degree as in the control group”. In addition, the feed conversion ratio entry (infected chickens, VET-HBM 3 g/kg, tiamutin 200 mg/kg, versus control group) is “remained at the same level”. Besides, where the note is “non-treated Group 2: 75 scores, VET-HBM 3 g/kg, tiamutin 200 mg/kg”, the “sum of the scores of the serological reaction” value is given as 11. In addition, under “versus infected non-treated Group 2, VET-HBM 3 g/kg, tiamutin 200 mg/kg”, the “pathological alterations (air-pocket- and peritoneum inflammation)” value is recorded as “developed significantly more scarcely”. Further, the “histological parameters (lymphohystiocytic bronchitis, lobular interstitial pneumoniae)” value (versus non-infected Group 1, VET-HBM 3 g/kg, tiamutin 200 mg/kg) was “remained on the same level as in the Group 1”.
